# Molecular target: His-tagged recombinant human TrkA (Homo sapiens (Human), UniProt P04629)
# Assay: TrkA LanthaScreen Eu Kinase Binding Assay
# Conditions: averaged IC50; TR-FRET binding, 60 min, 22° C.; read-out: TrkA Enzyme IC50
# Method: TrkA binding activity was determined in a TrkA LanthaScreen™ Eu Kinase Binding Assay. 5 nM His-tagged recombinant human TrkA (6HIS tagged cytoplasmic domain from Invitrogen, Catalog No. PV3144) was incubated with 4 nM Alexa-Fluor® Tracer 236 (Invitrogen Cat. No. PV5592), 2 nM biotinylated anti-His (Invitrogen Cat. No. PV6090), and 2 nM europium-labeled Streptavidin (Invitrogen Cat. No. PV5899), in buffer (25 mM MOPS, pH 7.5, 5 mM MgCl2, 0.005% Triton X-100). Three fold serial dilutions of compounds of the invention in DMSO were added to a final percentage of 2% DMSO. After 60-minute incubation at 22° C., the reaction was measured using the EnVision mutlimode plate reader (PerkinElmer) via TR-FRET dual wavelength detection at […]. The percent of control was calculated using a ratiometric emission factor. The IC50 values were determined by fitting a four parameter model to the percent of control data.
# Sequence of His-tagged recombinant human TrkA (P04629 440-796): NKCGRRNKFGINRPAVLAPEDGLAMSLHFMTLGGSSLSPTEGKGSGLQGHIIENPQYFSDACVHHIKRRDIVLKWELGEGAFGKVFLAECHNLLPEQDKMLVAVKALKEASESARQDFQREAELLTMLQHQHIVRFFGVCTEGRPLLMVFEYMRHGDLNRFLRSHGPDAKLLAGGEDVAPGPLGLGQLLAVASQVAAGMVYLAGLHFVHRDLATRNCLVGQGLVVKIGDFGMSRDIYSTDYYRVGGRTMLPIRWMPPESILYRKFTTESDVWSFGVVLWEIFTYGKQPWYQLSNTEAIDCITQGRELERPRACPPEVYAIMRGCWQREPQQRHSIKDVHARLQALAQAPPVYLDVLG
row,IC50,SMILES
1,100 to 1000 nM,"Cc1c(-c2cnn(C)c2)nn(-c2ccccc2)c1NC(=O)NC1CN(CC(F)(F)F)CCc2ccccc21 (stereo not shown) [Example 18, 1-(1′,4-dimethyl-1-phenyl-1H,1′H-3,4′-bipyrazol-5-yl)-3-(3-(2,2,2-trifluoroethyl)-2,3,4,5-tetrahydro-1H-benzo[d]azepin-1-yl)urea]"
2,100 to 1000 nM,"CC(=O)N1CCc2ccccc2C(NC(=O)Nc2c(C)c(-c3cnn(C)c3)nn2-c2ccccc2)C1 (stereo not shown) [Example 19, 1-(3-acetyl-2,3,4,5-tetrahydro-1H-benzo[d]azepin-1-yl)-3-(1′,4-dimethyl-1-phenyl-1H,1′H-3,4′-bipyrazol-5-yl)urea]"
3,100 to 1000 nM,"CCC(=O)N1CCc2ccccc2C(NC(=O)Nc2c(C)c(-c3cnn(C)c3)nn2-c2ccccc2)C1 (stereo not shown) [Example 20, 1-(1′,4-dimethyl-1-phenyl-1H,1′H-3,4′-bipyrazol-5-yl)-3-(3-propionyl-2,3,4,5-tetrahydro-1H-benzo[d]azepin-1-yl)urea]"
4,100 to 1000 nM,CCCN1CCc2ccccc2C(NC(=O)Nc2c(C)c(-c3cnn(C)c3)nn2-c2ccccc2)C1 (stereo not shown) [Example 21]
5,< 100 nM,"Cc1c(-c2cnn(C)c2)nn(-c2ccccc2)c1NC(=O)NC1CN(CC(F)(F)F)Cc2ccccc21 (stereo not shown) [Example 25, 1-(1′,4-dimethyl-1-phenyl-1H,1′H-3,4′-bipyrazol-5-yl)-3-(2-(2,2,2-trifluoroethyl)-1,2,3,4-tetrahydroisoquinolin-4-yl)urea]"
6,< 100 nM,"Cc1c(-c2cnn(C)c2)nn(-c2ccccc2)c1NC(=O)NC1CC(C2CC2)Oc2ccc(Br)cc21 (stereo not shown) [Example 33, 1-(6-bromo-2-cyclopropylchroman-4-yl)-3-(1′,4-dimethyl-1-phenyl-1H,1′H-[3,4′-bipyrazo]-5-yl)urea]"
7,< 100 nM,"Cc1c(-c2cnn(C)c2)nn(-c2ccccc2)c1NC(=O)NC1CC2(CCC2)Oc2ccc(Br)cc21 (stereo not shown) [Example 34, 1-(6-bromospiro[chroman-2,1′-cyclobutan]-4-yl)-3-(1′,4-dimethyl-1-phenyl-1H,1′H-[3,4′-bipyrazol]-5-yl)urea]"
8,< 100 nM,"COCc1ccc2c(c1)C(NC(=O)Nc1c(C)c(-c3cnn(C)c3)nn1-c1ccccc1)CC1(CCC1)O2 (stereo not shown) [Example 35A, 1-(1′,4-dimethyl-1-phenyl-1H,1′H-[3,4′-bipyrazol]-5-yl)-3-(6-(methoxymethyl)spiro[chroman-2,1′-cyclobutan]-4-yl)urea]"
9,100 to 1000 nM,"Cc1c(-c2cnn(C)c2)nn(-c2ccccc2)c1NC(=O)NC1CC2(CCC2)Oc2ccccc21 (stereo not shown) [Example 35B, 1-(1′,4-dimethyl-1-phenyl-1H,1′H-[3,4′-bipyrazol]-5-yl)-3-(spiro[chroman-2,1′-cyclobutan]-4-yl)urea]"
10,100 to 1000 nM,"Cc1c(-c2cnn(C)c2)nn(-c2ccccc2)c1NC(=O)NC1CCC(=O)c2ccccc21 (stereo not shown) [Example 36, 1-(1′,4-dimethyl-1-phenyl-1H,1′H-[3,4′-bipyrazol]-5-yl)-3-(4-oxo-1,2,3,4-tetrahydronaphthalen-1-yl)urea]"
11,100 to 1000 nM,"Cc1c(-c2cnn(C)c2)nn(-c2ccccc2)c1NC(=O)NC1CCC(C)(O)c2ccccc21 (stereo not shown) [Example 37, 1-(1′,4-dimethyl-1-phenyl-1H,1′H-[3,4′-bipyrazol]-5-yl)-3-(4-hydroxy-4-methyl-1,2,3,4-tetrahydronaphthalen-1-yl)urea]"
12,100 to 1000 nM,"Cc1c(-c2cnn(C)c2)nn(-c2ccccc2)c1NC(=O)NC1CCN(C)c2ccccc21 (stereo not shown) [Example 40, 1-(1′,4-dimethyl-1-phenyl-1H,1′H-[3,4′-bipyrazol]-5-yl)-3-(1-methyl-1,2,3,4-tetrahydroquinolin-4-yl)urea]"
13,< 100 nM,"Cc1c(-c2ccc(=O)n(C)c2)nn(-c2ccccc2)c1NC(=O)NC1CCN(C)c2ccccc21 (stereo not shown) [Example 41, 1-(1-methyl-1,2,3,4-tetrahydroquinolin-4-yl)-3-(4-methyl-3-(1-methyl-6-oxo-1,6-dihydropyridin-3-yl)-1-phenyl-1H-pyrazol-5-yl)urea]"
14,< 100 nM,"Cc1c(-c2ccc(=O)n(C)c2)nn(-c2ccccc2)c1NC(=O)NC1CCN(C)c2c(F)cc(Cl)cc21 (stereo not shown) [Example 44, 1-(6-chloro-8-fluoro-1-methyl-1,2,3,4-tetrahydroquinolin-4-yl)-3-(4-methyl-3-(1-methyl-6-oxo-1,6-dihydropyridin-3-yl)-1-phenyl-1H-pyrazol-5-yl)urea]"

# The next lines start with the molecule.
row,SMILES,IC50
1,"CCN1Cc2ccccc2C(NC(=O)Nc2c3c(nn2-c2ccccc2)CCC3)C1 (stereo not shown) [Example 22, 1-(2-ethyl-1,2,3,4-tetrahydroisoquinolin-4-yl)-3-(2-phenyl-2,4,5,6-tetrahydrocyclopenta[c]pyrazol-3-yl)urea]",100 to 1000 nM
2,"COCCN1Cc2ccccc2C(NC(=O)Nc2c3c(nn2-c2ccccc2)CCC3)C1 (stereo not shown) [Example 23, 1-(2-(2-methoxyethyl)-1,2,3,4-tetrahydroisoquinolin-4-yl)-3-(2-phenyl-2,4,5,6-tetrahydrocyclopenta[c]pyrazol-3-yl)urea]",100 to 1000 nM
3,"CC(=O)N1Cc2ccccc2C(NC(=O)Nc2c3c(nn2-c2ccccc2)CCC3)C1 (stereo not shown) [Example 24, 1-(2-acetyl-1,2,3,4-tetrahydroisoquinolin-4-yl)-3-(2-phenyl-2,4,5,6-tetrahydrocyclopenta[c]pyrazol-3-yl)urea]",100 to 1000 nM
4,"Cc1c(-c2cn(C)cn2)nn(-c2ccccc2)c1NC(=O)NC1CN(CC(F)(F)F)Cc2ccccc21 (stereo not shown) [Example 27, 1-(4-methyl-3-(1-methyl-1H-imidazol-4-yl)-1-phenyl-1H-pyrazol-5-yl)-3-(2-(2,2,2-trifluoroethyl)-1,2,3,4-tetrahydroisoquinolin-4-yl)urea]",< 100 nM
5,"O=C(Nc1c2c(nn1-c1ccccc1)CCC2)NC1CN(CC(F)(F)F)Cc2ccccc21 (stereo not shown) [Example 28, 1-(2-phenyl-2,4,5,6-tetrahydrocyclopenta[c]pyrazol-3-yl)-3-(2-(2,2,2-trifluoroethyl)-1,2,3,4-tetrahydroisoquinolin-4-yl)urea]",< 100 nM
6,"CNC(=O)c1nn(-c2ccccc2)c(NC(=O)NC2CN(CC(F)(F)F)Cc3ccccc32)c1C (stereo not shown) [Example 29, N,4-dimethyl-1-phenyl-5-(3-(2-(2,2,2-trifluoroethyl)-1,2,3,4-tetrahydroisoquinolin-4-yl)ureido)-1H-pyrazole-3-carboxamide]",< 100 nM
7,"Cc1c(NC(=O)NC2CN(CC(F)(F)F)Cc3ccccc32)n(-c2ccccc2)[nH]c1=O (stereo not shown) [Example 30, 1-(4-methyl-5-oxo-2-phenyl-2,5-dihydro-1H-pyrazol-3-yl)-3-(2-(2,2,2-trifluoroethyl)-1,2,3,4-tetrahydroisoquinolin-4-yl)urea]",< 100 nM
8,"Cc1nn(-c2ccccc2)c(NC(=O)NC2CN(CC(F)(F)F)Cc3ccccc32)c1C(N)=O (stereo not shown) [Example 31, 3-methyl-1-phenyl-5-(3-(2-(2,2,2-trifluoroethyl)-1,2,3,4-tetrahydroisoquinolin-4-yl)ureido)-1H-pyrazole-4-carboxamide]",< 100 nM
9,"Cc1c(-c2cnn(C)c2)nn(-c2ccccc2)c1NC(=O)Nc1cn(CC(F)(F)F)c(=O)c2ccccc12 [Example 38, 1-(1′,4-dimethyl-1-phenyl-1H,1′H-[3,4′-bipyrazol]-5-yl)-3-(1-oxo-2-(2,2,2-trifluoroethyl)-1,2-dihydroisoquinolin-4-yl)urea]",100 to 1000 nM
10,"COc1nn(-c2ccccc2)c(NC(=O)NC2CCN(C)c3ccccc32)c1C (stereo not shown) [Example 39, 1-(3-methoxy-4-methyl-1-phenyl-1H-pyrazol-5-yl)-3-(1-methyl-1,2,3,4-tetrahydroquinolin-4-yl)urea]",< 100 nM
11,"CCN1CCC(NC(=O)Nc2c(C)c(-c3ccc(=O)n(C)c3)nn2-c2ccccc2)c2ccccc21 (stereo not shown) [Example 42, 1-(1-ethyl-1,2,3,4-tetrahydroquinolin-4-yl)-3-(4-methyl-3-(1-methyl-6-oxo-1,6-dihydropyridin-3-yl)-1-phenyl-1H-pyrazol-5-yl)urea]",< 100 nM
12,"Cc1c(-c2ccc(=O)n(C)c2)nn(-c2ccccc2)c1NC(=O)NC1CCN(C)c2c(F)cccc21 (stereo not shown) [Example 43, 1-(8-fluoro-1-methyl-1,2,3,4-tetrahydroquinolin-4-yl)-3-(4-methyl-3-(1-methyl-6-oxo-1,6-dihydropyridin-3-yl)-1-phenyl-1H-pyrazol-5-yl)urea]",100 to 1000 nM
13,"CCN1CCC(NC(=O)Nc2c(C)c(-c3ccc(=O)n(C)c3)nn2-c2ccccc2)c2cc(Cl)ccc21 (stereo not shown) [Example 45, 1-(6-chloro-1-ethyl-1,2,3,4-tetrahydroquinolin-4-yl)-3-(4-methyl-3-(1-methyl-6-oxo-1,6-dihydropyridin-3-yl)-1-phenyl-1H-pyrazol-5-yl)urea]",< 100 nM
14,"CCN1CCC(NC(=O)Nc2c(C)c(OC)nn2-c2ccccc2)c2cc(Cl)ccc21 (stereo not shown) [Example 46, 1-(6-chloro-1-ethyl-1,2,3,4-tetrahydroquinolin-4-yl)-3-(3-methoxy-4-methyl-1-phenyl-1H-pyrazol-5-yl)urea]",< 100 nM
15,"CO[C@H]1Cc2ccccc2[C@@H]1NC(=O)Nc1c2c(nn1-c1ccccc1)CCC2 [Example 47, 1-((1S,2S)-2-methoxy-2,3-dihydro-1H-inden-1-yl)-3-(2-phenyl-2,4,5,6-tetrahydrocyclopenta[c]pyrazol-3-yl)urea]",100 to 1000 nM
16,"COCCO[C@H]1Cc2ccccc2[C@@H]1NC(=O)Nc1c2c(nn1-c1ccccc1)CCC2 [Example 48, 1-((1S,2S)-2-(2-methoxyethoxy)-2,3-dihydro-1H-inden-1-yl)-3-(2-phenyl-2,4,5,6-tetrahydrocyclopenta[c]pyrazol-3-yl)urea]",100 to 1000 nM
17,"CCOc1nn(-c2ccccc2)c(NC(=O)N[C@H]2c3ccccc3C[C@@H]2OCCOC)c1C [Example 49, 1-(3-ethoxy-4-methyl-1-phenyl-1H-pyrazol-5-yl)-3-((1S,2S)-2-(2-methoxyethoxy)-2,3-dihydro-1H-inden-1-yl)urea]",100 to 1000 nM
